Legend:
[1] = test system: WT MDA-MB-231 cells; experiment: Colocalization between internalized NeutrAvidin and lysosome marker LAMP1; assay type: cell-based, human; details: HAC-B 5 μM, NA-647 0.5 μM 1 h
Method: Colocalization between internalized NeutrAvidin™ and lysosome maker: 5×10^4 WT MDA-MB-231 cells were seeded in a confocal dish and cultured for 24 h at 37° C. Then, the cells were treated with free HAC-B at 5 μM for 2 h. Next, the drug-containing medium was removed, and PBS was used to wash the cells twice, followed by incubating the cells in the blank medium containing NA-647 at 0.5 μM for 1 h. Subsequently, the cells were washed with PBS twice and fixed with 4% PFA at room temperature for 20 min. Subsequently, the cell sample was treated with the permeabilization solution (0.5% Triton™ X-100 in PBS) at room temperature for another 20 min, followed by incubation with the blocking buffer (1% BSA in PBS) at room temperature for 1 h. The cell sample was incubated with the rabbit anti-LAMP1 antibody (Cell Signaling Technology/9091T) overnight at 4° C., followed by the incubation with the Alexa Fluor®488-conjugated anti-rabbit IgG H & L secondary antibodies at room temperature for 2 h. After staining with Hoechst 33342, the cells were subjected to Leica SP8 Confocal WLL STED microscopy for observation.

[2] = test system: HSP90α (Hsp90aa1) and HSP90β (Hsp90ab1); experiment: Streptavidin-mediated immunoprecipitation and mass spectrum analysis of biotin-labeled protein in 4T1 lysate; assay type: cell-based, murine; details: 4T1 cell lysate
Method: Streptavidin-mediated immunoprecipitation and mass spectrum analysis: 2×10^6 4T1 cells were seeded in T75 culture flasks and cultured for 24 h. Then, the medium in the corresponding flasks was replaced with 15 mL of blank medium with DMSO or HAC-B (10 μM). Following incubation for another 2 h, the cells were washed with cold PBS twice and digested with 2 mL trypsin. The cell pellets were collected through centrifugation at 1,200 rpm for 3 min and washed with cold PBS. The final pellets were directly lysed on ice with IP lysis buffer (50 mM Tris-HCl, pH 7.4; 150 mM NaCl; 2 mM EDTA; 1% NP-40) containing PMSF (1 mM) and the phosphatase inhibitor cocktail for 30 min. The lysates were collected and centrifuged at 10,000 g for 10 minutes at 4° C. The total proteins in the supernatants were quantified through the BCA assay, and 20 μL of lysate supernatants were saved as the input samples. To totally pull down the biotin-labeled contents, 150 μL of Pierce™ streptavidin magnetic beads was added to each supernatant, and the resulting mixtures were incubated at 4° C. with a gentle rotation overnight. Subsequently, the supernatant was discarded by placing the tubes on a magnetic rack, and the obtained magnetic beads were washed with IP lysis buffer three times. […] Finally, the bands were treated with ECL western blot substrate and detected by the iBright™ imaging system. […]

For `N#CCN(C(=O)CCCC[C@@H]1SC[C@@H]2NC(=O)N[C@@H]21)S(=O)(=O)c1ccc(C(=O)NCCCn2c(Sc3cc4c(cc3I)OCO4)nc3c(N)ncnc32)cc1` [HAC-B, N-(3-(6-amino-8-((6-iodobenzo[d][1,3]dioxol-5-yl)thio)-9H-purin-9-yl)propyl)-4-(N-(cyanomethyl)-N-(5-((3aS,4S,6aR)-2-oxohexahydro-1H-thieno[3,4-d]imidazol-4-yl)pentanoyl)sulfamoyl)benzamide], which “distribution of internalized NA-647 relative to lysosome marker LAMP1” value [1] is on record?
Its value is “mainly overlapped with the lysosome maker, LAMP1”.

What about the “biotin-labeled protein immunoprecipitated by streptavidin beads (gel, immunoblot)” value ([2]; 10 μM, 2 h, vs sample without treatment) of the same compound?
The value was “an additional HSP90 band appeared in the gel”.

And the “protein identification on IP samples through mass spectrum” value ([2]; streptavidin IP)?
Its value is “could bind to both isoforms of HSP90, HSP90α (Hsp90aa1) and HSP90β (Hsp90ab1), with a favorable selectivity”.

From US20250327028A1, “ENGINEERED PLATELETS AS TARGETED PROTEIN DEGRADERS” (Wisconsin Alumni Research Foundation, priority 2024, published 2025)
